{
  "source": "patent US20080200393A1",
  "about": "“Method and Composition For Treating Angiogenesis and For Preventing Cancer Progression and Metastasis Comprising a Prostate Secretory Protein (Psp94) Family Member” (Ambrillia Biopharma Inc., priority 2004, published 2008)",
  "key": {"proMMP-2": {"tested_on": "proMMP-2", "experiment": "Gelatin zymography of HUVEC conditioned media", "assay_type": "cell-based, Human", "details": "HUVEC, serum-free media", "protocol": "Zymography. Zymography is a technique generally used to analyze the activity of matrix metalloproteinases (MMPs) in biological samples. It involves the electrophoretic separation of proteins under denaturing (Sodium Dodecyl Sulfate (SDS)) but non-reducing conditions through a polyacrylamide gel containing gelatin (for example, 10% gel containing 1 mg/ml gelatin for MMP-9 and MMP-2 assays). The resolved proteins are re-natured by exchanging SDS with a non-ionic detergent such as Triton X-100 and the gel is incubated in an incubation buffer for activation of MMP-2 and MMP-9 (for example at 37° C. for 18 hrs). The gel is stained with Coomassie blue and the MMP-2 and MMP-9 bands may be visualized as clear bands against a blue background (i.e., the MMPs degrade the gelatin and are visualized as clear bands; pro MMP-2 is 68 kDa and pro-MMP-9 is 92 kDa). These bands can be quantified using densitometry. For example, prior to stimulation, quiescent HUVEC were serum-starved for 16 h in the presence or absence of PCK3145 or PD98059 and then stimulated with VEGF. The conditioned media were collected 24 h after stimulation, and clarified by centrifugation. Identical volume of conditioned media were mixed with non reducing Laemmli sample buffer and subjected to 7.5% SDS-polyacrylamide gels containing 1 mg/ml gelatin (Sigma). The gels were then incubated for 30 min at room temperature twice in 2.5% (v/v) Triton X-100 and rinsed five times in doubly distilled water. The gels were incubated at 37° C. for a further 18 h in 200 mM NaCl/5 mM CaCl2/0.02% (v/v) Brij-35/50 mM Tris/HCl buffer (pH 7.6), then stained with 0.1% Coomassie Brilliant Blue R-250, followed by destaining in 10% (v/v) acetic acid/30% (v/v) methanol in water. Gelatinolytic activity was detected as unstained bands on a blue background.\nThe effect of the PCK3145 derivative (SEQ ID NO.:7) on MMP extracellular levels was thus assessed by gelatin-zymography in the conditioned media of serum-starved HUVEC. After 16 hours of starvation, HUVEC were stimulated with VEGF in the presence or not of the PCK3145 derivative. […]"}, "ERK [1]": {"tested_on": "ERK", "experiment": "Intrinsic effect on ERK phosphorylation (Western blot)", "assay_type": "cell-based", "protocol": "The induction of the MAPK pathway by the PCK3145 derivative is further confirmed by the rapid and transient induction of ERK phosphorylation between 5-10 minutes (FIG. 8B) and is shown to be dose-dependent (FIG. 8C). Finally, the effects of the PCK3145 derivative were also compared to those of a scrambled peptide."}, "ERK [2]": {"tested_on": "ERK", "experiment": "Induced ERK phosphorylation in HUVEC (Western blot)", "assay_type": "cell-based, Human", "protocol": "Cell culture. Human umbilical vein endothelial cells (HUVEC) and pulmonary aortic smooth muscle cells (PASMC) were obtained from Clonetics and maintained in endothelial cell basal medium-2 (EBM-2; Clonetics) and smooth muscle medium-2 (SmGM-2; Clonetics), respectively. Cells were cultured at 37° C. under a humidified atmosphere containing 5% CO2. For experimental purposes, cells were plated in 8 100-mm plastic dishes at 5,000 cells/cm^2 and were grown to confluence before overnight serum starvation. Cells were treated with vehicle or with a PCK3145 derivative diluted in 0.1 N NaOH, and stimulated with 50-100 ng/ml VEGF or PDGF, with 10 ng/ml of bFGF (basic fibroblast growth factor) or with 1 μM S1P (sphingosine-1-phosphate).\n(§1) Immunoprecipitation and immunoblotting procedures. After treatment, cells were washed once with phosphate-buffered saline (PBS) containing 1 mM sodium orthovanadate and were incubated in the same medium for 1 h at 4° C. The cells were solubilized on ice in lysis buffer (150 mM NaCl, 10 mM Tris-HCl, pH 7.4, 1 mM EDTA, 1 mM EGTA, 0.5% Nonidet P-40, 1% Triton X-100) containing 1 mM sodium orthovanadate. The cells were then scraped from the culture dishes and the resulting lysates were clarified by centrifugation at 10,000 g for 10 min; Protein concentrations were determined using the micro bicinchoninic acid method (Pierce). For immunoprecipitation studies, lysates were clarified by a 1 h incubation at 4° C. with a mixture of Protein A/Protein G Sepharose beads. After removal of the Sepharose beads by low-speed centrifugation, identical amounts of protein (200 μg) from each sample were transferred to fresh tubes and incubated in lysis buffer overnight at 4° C. in the presence of 2 μg/ml of specific antibodies. Immunocomplexes were collected by incubating the mixture with 25 μl (50% suspension) of Protein A- (rabbit primary antibody) or Protein G- (mouse primary antibody) Sepharose beads, for 2 h. Nonspecifically-bound material was removed by washing the beads three times in 1 ml of lysis buffer containing 1 mM sodium orthovanadate, and bound material was solubilized in 25 μl of two-fold concentrated Laemmli sample buffer (125 mM Tris-HCl (pH 6.8), 20% glycerol, 4% SDS, 10% β-mercaptoethanol, and 0.00125% bromphenol blue), boiled 5 min, and resolved by SDS-PAGE. The proteins were transferred onto polyvinylidene difluoride (PVDF) membranes, blocked 1 h at room temperature with Tris-buffered saline/Tween 20 (147 mM NaCl, 20 mM Tris/HCl, pH 7.5, and 0.1% Tween 20) containing 2% bovine serum albumin and incubated overnight at 4° C. with primary antibody. […] The immunoreactive bands were quantified by scanning densitometry (Molecular Dynamics).\nVEGF is a strong activator of ERKs (Extracellular-signal-Regulated protein Kinases) 1 and 2 via VEGF receptor 2. In order to test the ability of the PCK3145 derivative in potentially antagonizing VEGF-mediated ERK phosphorylation, serum-starved quiescent endothelial cells (HUVEC) were incubated with vehicle (phosphate-buffered saline (PBS) pH 7.4) or PCK3145 derivative (300 μg/ml) for 24 h and then stimulated with VEGF, bFGF (basic Fibroblast Growth Factor) or S1P (sphingosine-1-phosphate). Cells were washed with PBS containing NaF/Na3VO4 and incubated in the same medium buffer for 1 h at 4° C. The cells were scraped from the culture dishes and the resulting lysates clarified by centrifugation. Western blotting and immunodetection using anti-phosphoERK and anti-ERK antibodies was then performed."}, "VEGFR-2": {"biological_target": "T1, VEGFR-2 (Homo sapiens, UniProt P35968)", "T1 construct": "host or cells: HUVEC", "T1 sequence (P35968 20-1356)": "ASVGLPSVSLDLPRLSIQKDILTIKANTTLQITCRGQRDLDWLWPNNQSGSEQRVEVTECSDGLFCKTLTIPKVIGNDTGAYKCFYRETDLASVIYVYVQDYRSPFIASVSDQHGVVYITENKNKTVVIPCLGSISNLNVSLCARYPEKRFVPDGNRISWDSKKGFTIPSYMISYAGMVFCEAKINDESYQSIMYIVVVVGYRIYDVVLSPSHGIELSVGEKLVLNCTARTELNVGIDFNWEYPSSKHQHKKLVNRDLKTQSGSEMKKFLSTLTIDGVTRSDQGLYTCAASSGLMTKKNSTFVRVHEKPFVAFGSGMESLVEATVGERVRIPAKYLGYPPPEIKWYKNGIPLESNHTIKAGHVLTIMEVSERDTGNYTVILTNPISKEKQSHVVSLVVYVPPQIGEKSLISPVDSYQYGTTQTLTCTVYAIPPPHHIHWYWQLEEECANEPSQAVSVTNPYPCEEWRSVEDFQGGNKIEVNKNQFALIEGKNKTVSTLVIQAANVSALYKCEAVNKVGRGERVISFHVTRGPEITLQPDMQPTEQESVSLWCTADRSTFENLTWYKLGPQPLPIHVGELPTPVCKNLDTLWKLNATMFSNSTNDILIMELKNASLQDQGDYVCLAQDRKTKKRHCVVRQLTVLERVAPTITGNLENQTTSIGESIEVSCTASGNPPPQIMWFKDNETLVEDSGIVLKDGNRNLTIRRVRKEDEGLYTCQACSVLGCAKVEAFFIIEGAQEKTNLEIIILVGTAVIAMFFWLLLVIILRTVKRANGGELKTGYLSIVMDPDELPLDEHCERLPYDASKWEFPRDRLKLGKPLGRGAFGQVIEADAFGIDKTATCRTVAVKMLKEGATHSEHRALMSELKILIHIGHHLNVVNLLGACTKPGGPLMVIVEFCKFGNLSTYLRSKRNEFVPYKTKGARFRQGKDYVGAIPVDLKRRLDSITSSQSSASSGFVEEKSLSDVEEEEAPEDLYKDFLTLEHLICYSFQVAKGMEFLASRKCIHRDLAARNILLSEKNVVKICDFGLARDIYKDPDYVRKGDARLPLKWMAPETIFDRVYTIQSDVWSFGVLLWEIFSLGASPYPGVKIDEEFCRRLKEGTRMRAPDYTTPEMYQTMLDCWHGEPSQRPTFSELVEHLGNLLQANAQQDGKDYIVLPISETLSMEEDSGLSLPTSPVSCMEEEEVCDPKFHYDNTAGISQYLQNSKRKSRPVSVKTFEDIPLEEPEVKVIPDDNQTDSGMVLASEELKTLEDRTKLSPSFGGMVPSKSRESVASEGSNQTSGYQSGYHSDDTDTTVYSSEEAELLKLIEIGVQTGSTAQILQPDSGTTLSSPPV", "experiment": "VEGF-induced VEGFR-2 phosphorylation in HUVEC (immunoprecipitation, Western blot)", "assay_type": "cell-based", "protocol": "as §1, with “SDS-PAGE.” for “SDS-PAGE. The proteins were transferred onto polyvinylidene difluoride (PVDF) membranes, blocked 1 h at room temperature with Tris-buffered saline/Tween 20 (147 mM NaCl, 20 mM Tris/HCl, pH 7.5, and 0.1% Tween 20) containing 2% bovine serum albumin and incubated overnight at 4° C. with primary antibody.”\nThe multifunctionality of VEGF at the cellular level results from its ability to initiate a diverse, complex and integrated network of signaling pathways via its major receptor, VEGFR-2. […] After each treatment, equal amounts of protein were immunoprecipitated with anti-VEGFR-2 polyclonal antibodies and analysed by Western blotting."}, "HUVEC": {"tested_on": "HUVEC", "experiment": "HUVEC migration assay (modified Boyden chambers, gelatin-coated filters)", "assay_type": "cell-based, Human", "details": "300 μg/ml", "protocol": "Migration Assays. Transwells filters (8-μm pore size; Costar, Cambridge, Mass.) were pre-coated with 0.5% gelatin/PBS for 24 h at 4° C. The transwells were then washed with PBS and assembled in 24-well plates. The upper chamber of each transwell was filled with 100 μl of HUVEC (1×10^6 cells/ml) and cells were allowed to adhere for 1 h. Cells were then treated for 2 h by adding 100 μl of 2-fold concentrated drug solution prepared in serum-free medium into the upper chamber and 600 μl of the drug solution into the lower chamber. Migration was initiated by adding VEGF (10 ng/ml), or S1P (1 μM) to the lower chamber. The plate was placed at 37° C. in 5% CO2/95% air for 4 h. Cells that had migrated to the lower surface of the filters were fixed with 10% formalin phosphate and stained with 0.1% Crystal Violet/20% (v/v) methanol. The migration was quantified using computer-assisted imaging and data are expressed as the average density of migrated cells per four fields (magnification×50).\nCells were plated onto gelatin-coated filters inserted in modified Boyden chemotactic chambers. The effect of PCK3145 on basal migration and on VEGF-induced migration was monitored by the number of cells that had migrated comparatively to untreated control cells. HUVEC were dislodged from the flasks by trypsinization, washed and resuspended in serum-free media. Cells were placed onto gelatin-coated filters inserted in chambers and incubated at 37° C., 5% CO2 for 30 min to allow adequate anchoring to the filters. The monolayers were then exposed to serum-free media containing PCK3145 (300 μg/ml) added within the upper and lower compartment of the chambers. After 2 h, VEGF (50 ng/ml) was added in the lower chamber as a chemoattractant. Cell migration was allowed to proceed for another 3 h. Filters were then fixed, stained, and the migrated cells quantified by microscopy as described in the Methods section. […] The effect of. PCK on S1P-induced HUVEC migration was also measured, but no inhibition was observed (not shown) in this particular assay."}, "tumor cells": {"tested_on": "tumor cells", "details": "U.S. Pat. No. 5,428,011; cited from earlier work"}, "skeletal metastasis": {"tested_on": "skeletal metastasis", "details": "WO03/039576; cited from earlier work"}, "FSH": {"tested_on": "FSH", "details": "Thakur et al., 1981; cited from earlier work"}, "FSH receptor": {"biological_target": "T2, FSH receptor (Homo sapiens, UniProt P23945)", "T2 construct": "host or cells: testicular membrane preparations", "T2 sequence (P23945 18-695)": "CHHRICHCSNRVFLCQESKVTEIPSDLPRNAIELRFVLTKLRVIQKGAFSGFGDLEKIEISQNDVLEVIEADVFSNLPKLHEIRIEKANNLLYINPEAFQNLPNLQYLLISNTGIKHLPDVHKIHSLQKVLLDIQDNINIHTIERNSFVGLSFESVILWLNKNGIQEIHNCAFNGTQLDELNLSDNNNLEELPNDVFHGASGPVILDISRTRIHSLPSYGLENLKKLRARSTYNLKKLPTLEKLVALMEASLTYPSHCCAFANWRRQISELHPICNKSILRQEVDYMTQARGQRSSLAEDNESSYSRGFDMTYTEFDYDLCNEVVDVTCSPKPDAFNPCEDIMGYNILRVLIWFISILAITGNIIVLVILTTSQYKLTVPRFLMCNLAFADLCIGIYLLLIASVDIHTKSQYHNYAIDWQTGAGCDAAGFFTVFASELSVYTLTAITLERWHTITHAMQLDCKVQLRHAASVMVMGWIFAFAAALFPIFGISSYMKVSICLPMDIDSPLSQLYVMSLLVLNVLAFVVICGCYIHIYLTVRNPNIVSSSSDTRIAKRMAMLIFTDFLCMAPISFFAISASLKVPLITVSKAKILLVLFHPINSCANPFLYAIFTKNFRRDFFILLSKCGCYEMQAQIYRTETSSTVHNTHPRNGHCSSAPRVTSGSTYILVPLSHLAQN", "details": "testicular membrane preparations; Vijayalakshmi et al., 1981; cited from earlier work"}},
  "note": "Where no end group is shown, it is not given here. The star is where a group is joined. Acm = CC(=O)NC*",
  "data": [
    {"molecule": "COc1cccc(-c2cc(=O)c3ccccc3o2)c1N", "note": "[PD98059, reference compound]", "values": [
      {"measurement": "VEGF-induced proMMP-2 extracellular levels", "setting": "proMMP-2", "value": "significantly decreased"},
      {"measurement": "induction of ERK phosphorylation by the PCK3145 derivative", "setting": "ERK [1]; MAPK inhibitor added", "value": "antagonized"}
    ]},
    {"molecule": "TC(Acm)ENC(Acm)TETQWC(Acm)ETDY [scrambled peptide, reference compound]", "values": [
      {"measurement": "VEGF-induced ERK phosphorylation, negative control", "setting": "ERK [2]", "value": "lack of effect"},
      {"measurement": "VEGF-induced VEGFR-2 phosphorylation, negative control", "setting": "VEGFR-2", "value": "lack of effect"},
      {"measurement": "induction of ERK phosphorylation", "setting": "ERK [1]; compared to the PCK3145 derivative", "value": "unable to induce"}
    ]},
    {"molecule": "EWQTDNCETCTCYET (cysteine pairing not given here) [PCK3145, PSP94 fragment, 15 amino acids]", "values": [
      {"measurement": "basal cell migration", "setting": "HUVEC", "value": "no significant effect"},
      {"measurement": "VEGF-induced cell migration", "setting": "HUVEC; VEGF 50 ng/ml", "value": "no significant effect"}
    ]},
    {"molecule": "PSP94: Prostate secretory protein of human seminal fluid, 10.7 kDa, 10 cysteine residues; wild type, 94 amino acids (protein, UniProt P08118 21-114, looked up) Beta-microseminoprotein: SCYFIPNEGVPGDSTRKCMDLKGNKHPINSEWQTDNCETCTCYETEISCCTLVSTPVGYDKDNCQRIFKKEDCKYIVVEKKDPKKTCSVSEWII", "values": [
      {"measurement": "growth of tumor cells", "setting": "tumor cells", "value": "inhibits"},
      {"measurement": "development of skeletal metastasis", "setting": "skeletal metastasis", "value": "reduces"},
      {"measurement": "FSH levels", "setting": "FSH", "value": "lower"},
      {"measurement": "binding of FSH to its receptor", "setting": "FSH receptor", "value": "interfere"}
    ]}
  ]
}
